Data as given in patent US12398179B2, “Nanomolar peptides and derivatives to differentially modulate ephrin receptors” (Sanford Burnham Prebys Medical Discovery Institute, priority 2019, dated 2025).
In brackets after ≈: the same amount, converted by molar mass.

Assays:
[1] = biological target: T1, EphA2 LBD (Homo sapiens, UniProt P29317); test: Isothermal titration calorimetry (ITC) of peptide binding; conditions: EphA2 LBD, 23° C.; average ± SE (Table 1); read-out: KD (nM) by ITC
T1 construct: EphA2 LBD (residues 28-200); made in house; host or cells: E. coli Origami 2 (DE3)
Method: For ITC, all peptides were dissolved in DMSO and both the EphA2 LBD and the peptides were diluted to obtain a final buffer containing 9.5 mM HEPES, pH 7.9, 95 mM NaCl, and 5% DMSO. […] Two-microliter aliquots of a peptide solution were injected into the cell containing 205 μL EphA2 LBD. 200-400 μM peptides were titrated into 20-40 μM EphA2 LBD. Experimental data were analyzed using the Origin software package (Microcal). The integrated values for the reaction heats were normalized to the amount of injected peptide after blank subtraction.

[2] = biological target: T2, EphA2 (Homo sapiens, UniProt P29317); test: ELISA: inhibition of ephrin-A5 AP binding to immobilized EphA2 Fc; parameters: the immobilized EphA2 extracellular domain fused to the Fc portion of an antibody (EphA2 Fc); conditions: average ± SE
Method: (FIG. 2A) Representative ELISAs comparing the ability of the peptides to inhibit binding of ephrin-A5 fused to alkaline phosphatase (ephrin-A5 AP) to the immobilized EphA2 extracellular domain fused to the Fc portion of an antibody (EphA2 Fc). The graphs show averages±SE from triplicate measurements from a representative experiment. IC50 values calculated from the fitted curves in each experiment are shown. All concentrations are nM and the 100 nM peptide concentration is outlined in red. (FIG. 2B) Ephrin-A5 AP binding to the indicated EphA receptors and ephrin-B2 AP binding to the indicated EphB receptors in the presence of the indicated peptide, normalized to ephrin binding without peptide. The bars show averages±SE from triplicate measurements.
Target sequence in this assay (P29317 24-537 limits assumed, species assumed): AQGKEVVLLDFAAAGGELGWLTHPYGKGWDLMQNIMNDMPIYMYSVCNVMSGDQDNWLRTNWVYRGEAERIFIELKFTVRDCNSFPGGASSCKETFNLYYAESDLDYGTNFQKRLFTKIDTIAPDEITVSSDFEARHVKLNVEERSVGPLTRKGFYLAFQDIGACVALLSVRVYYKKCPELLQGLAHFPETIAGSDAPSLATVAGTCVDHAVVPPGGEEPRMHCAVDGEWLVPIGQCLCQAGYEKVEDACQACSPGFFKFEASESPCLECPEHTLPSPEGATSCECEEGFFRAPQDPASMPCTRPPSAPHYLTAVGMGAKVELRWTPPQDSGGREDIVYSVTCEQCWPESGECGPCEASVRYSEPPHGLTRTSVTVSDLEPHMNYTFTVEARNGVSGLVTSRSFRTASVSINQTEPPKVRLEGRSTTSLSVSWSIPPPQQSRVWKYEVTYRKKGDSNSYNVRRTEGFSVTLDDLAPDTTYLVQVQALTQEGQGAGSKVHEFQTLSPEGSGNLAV

[3] = Peptide solubility in PBS/H2O
[4] = biological target: T2, EphA2; test: Inhibition of ephrin-A1 Fc-induced EphA2 Y588 phosphorylation in PC3 cells; assay type: cell-based; parameters: endogenous EphA2 expressed in PC3 prostate cancer cells; endogenous in cells; host or cells: PC3 prostate cancer cells; conditions: 20 min peptide then 0.1 μg/ml ephrin-A1 Fc
Method: PC3 cells were treated for 20 min with different concentrations of the indicated peptides and then activated with 0.1 μg/ml ephrin-Al Fc. The immunoblots show EphA2 autophosphorylation on tyrosine 588 (pY588, indicative of receptor activation), total EphA2 levels, and AKT phosphorylation on S473 (indicative of AKT activation). pY588 values were normalized to the value obtained in the same blot with ephrin-Al Fc treatment in the absence of peptide. pAKT values were normalized to the value obtained in the same blot without ephrin-A1 Fc or peptide treatment. Calculated EC50 and IC50 values are shown. The graphs show quantification of pY588 and pAKT from 7 blots for each peptide (averages±SE), normalized to total EphA2 levels.
Target sequence in this assay (P29317 24-976): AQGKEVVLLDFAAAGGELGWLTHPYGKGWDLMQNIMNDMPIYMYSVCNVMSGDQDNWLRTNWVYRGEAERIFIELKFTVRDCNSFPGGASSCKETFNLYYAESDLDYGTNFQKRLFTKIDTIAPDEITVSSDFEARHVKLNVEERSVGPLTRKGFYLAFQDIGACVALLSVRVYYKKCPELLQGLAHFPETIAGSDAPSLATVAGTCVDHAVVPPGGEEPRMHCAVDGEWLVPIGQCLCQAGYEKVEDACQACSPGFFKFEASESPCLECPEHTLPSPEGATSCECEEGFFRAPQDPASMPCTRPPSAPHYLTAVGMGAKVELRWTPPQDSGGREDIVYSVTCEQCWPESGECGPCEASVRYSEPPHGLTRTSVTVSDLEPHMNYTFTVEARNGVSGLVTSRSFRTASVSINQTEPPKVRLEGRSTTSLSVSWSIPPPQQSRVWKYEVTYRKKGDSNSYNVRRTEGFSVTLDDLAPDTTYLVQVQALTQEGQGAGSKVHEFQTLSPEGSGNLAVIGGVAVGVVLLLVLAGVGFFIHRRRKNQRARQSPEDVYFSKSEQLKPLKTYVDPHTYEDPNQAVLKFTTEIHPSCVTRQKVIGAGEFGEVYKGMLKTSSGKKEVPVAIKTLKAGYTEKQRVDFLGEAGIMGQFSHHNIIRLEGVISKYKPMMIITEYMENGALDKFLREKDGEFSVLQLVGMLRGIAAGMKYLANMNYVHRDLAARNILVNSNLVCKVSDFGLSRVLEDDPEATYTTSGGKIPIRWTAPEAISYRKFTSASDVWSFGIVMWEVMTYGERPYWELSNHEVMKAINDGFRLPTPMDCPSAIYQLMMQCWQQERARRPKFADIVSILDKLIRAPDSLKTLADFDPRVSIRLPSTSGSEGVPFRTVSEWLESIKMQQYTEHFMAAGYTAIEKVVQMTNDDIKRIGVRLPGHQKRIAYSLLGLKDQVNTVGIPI

[5] = system: AKT; test: AKT S473 phosphorylation in PC3 cells (immunoblot); assay type: cell-based; conditions: peptide then 0.1 μg/ml ephrin-A1 Fc
Method: PC3 cells were treated for 15 min with different concentrations of the indicated peptides. […] The graphs show quantification of pY588 and pAKT from multiple blots (averages±SE), normalized to total EphA2 levels. The number of experiments analyzed is: 5 in FIG. 4A, 3 in FIG. 4B, 7 in FIG. 4C, 7 in FIG. 4D, 5 in FIG. 4E, 3 in FIG. 4F, 3 in FIG. 4G and 2 in FIG. 4H.

[6] = biological target: T3, EphA2 WT (Homo sapiens, UniProt P29317); test: Quantitative FRET of EphA2 oligomerization in HEK293 cells; assay type: cell-based; conditions: transiently transfected HEK293 cells; 50 μM for YSA-GSGSK-bio
T3 construct: expressed in transfected cells; host or cells: HEK293 (transient transfection)

[7] = biological target: T4, EphA2 L223R/L254R/V255R (Homo sapiens, UniProt P29317, L223R/L254R/V255R); test: as above; assay type: cell-based; conditions: 50 μM peptide
T4 construct: expressed in transfected cells; host or cells: HEK293 (transient transfection)
Excerpt: (§1) (FIG. 5F) Two-dimensional dissociation constant values (Kdiss) and dimerization free energy values (ΔG=−RT×In (10^6/Kdiss) calculated from the curves shown in the other panels. Shown are the best fit values and the […] confidence intervals (standard errors). Kdiss values for all curves were compared to each other using one-way ANOVA followed by Tukey's multiple comparison test; *, P<0.05; **, P<0.01; ***, P<0.001; * P<0.0001; ns, not significant.
(§2) Thus, the peptide enhanced the weak EphA2 dimerization observed in the absence of a bound ligand, which also occurred through the clustering interface. In contrast, the monomeric soluble form of ephrin-Al induced the formation of EphA2 dimers that assembled through another extracellular interface known as the “heterodimerization” or “dimerization” interface.

[8] = biological target: T5, EphA2 G131Y (Homo sapiens, UniProt P29317, G131Y); test: as above; assay type: cell-based; conditions: 50 μM peptide
T5 construct: expressed in transfected cells; host or cells: HEK293 (transient transfection)
Excerpt: as §1, §2

[9] = PBS, Solubility in PBS (mg/ml), PBS (first figure of cell)
[10] = water, Solubility in H2O (mg/ml), H2O (second figure of cell)

T1 sequence (P29317 28-200): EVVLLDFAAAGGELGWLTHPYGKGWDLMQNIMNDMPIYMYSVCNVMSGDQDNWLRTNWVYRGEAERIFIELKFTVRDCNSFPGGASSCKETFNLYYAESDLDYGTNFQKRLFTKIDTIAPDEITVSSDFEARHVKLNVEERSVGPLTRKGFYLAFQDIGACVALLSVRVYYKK
T3 sequence (P29317 24-976): as the sequence (P29317 24-976) above
T4 sequence (P29317 24-976 L223R/L254R/V255R): as the sequence (P29317 24-976) above, with L200R, L231R, V232R counted along it
T5 sequence (P29317 24-976 G131Y): as the sequence (P29317 24-976) above, with G108Y counted along it

Kd [1] | IC50 [2] | solubility [3, 9] | solubility [3, 10] | effect on EphA2 Y588 phosphorylation induced by ephrin-A1 Fc [4] | EphA2 L223R/L254R/V255R oligomerization by FRET [7] | EphA2 G131Y oligomerization by FRET [8] | Compound | effect on AKT inhibition caused by EphA2 activation [5] | EphA2 WT oligomerization by FRET [6]
110 nM | 19 ± 2 nM | 10 mg/mL (≈ 6.02 mM) | 10 mg/mL (≈ 6.02 mM) | inhibited |  |  | CC(C)C[C@H](NC(=O)[C@H](Cc1c[nH]c2ccccc12)NC(=O)CCN)C(=O)N[C@@H](C)C(=O)N[C@@H](Cc1ccc(O)cc1)C(=O)N1CCC[C@H]1C(=O)N[C@@H](CC(=O)O)C(=O)N[C@@H](CO)C(=O)N[C@H](C(=O)N1CCC[C@H]1C(=O)N[C@@H](Cc1ccc(O)cc1)C(=O)N[C@@H](CCCNC(=N)N)C(=O)N1CCC[C@H]1C(=O)N[C@@H](CCCCN)C(N)=O)C(C)C [βA-WLA-YRPKam] | prevented the inhibitory effects | 
 |  | 15 mg/mL (≈ 7.54 mM) | 15 mg/mL (≈ 7.54 mM) |  | promoted substantial oligomerization | had no effect on/reduced oligomerization | CSCC[C@H](NC(=O)[C@H](CCSC)NC(=O)[C@@H]1CCCN1C(=O)[C@@H](NC(=O)[C@H](CO)NC(=O)[C@H](CC(=O)O)NC(=O)[C@@H]1CCCN1C(=O)[C@H](Cc1ccc(O)cc1)NC(=O)[C@H](C)NC(=O)[C@H](CO)NC(=O)[C@@H](N)Cc1ccc(O)cc1)C(C)C)C(=O)N[C@@H](CO)C(=O)NCC(=O)N[C@@H](CO)C(=O)NCC(=O)N[C@@H](CO)C(=O)N[C@@H](CCCCNC(=O)CCCC[C@@H]1SC[C@@H]2NC(=O)N[C@@H]21)C(=O)O [YSA-GSGSK-bio] |  | substantially increased the oligomeric fraction
